# Assay results published in article PMC12428554, “Anti-HIV and Antimicrobial Activity of 7-Hydrazino-8-hydroxyquinoline-Based Aromatic Hydrazones” (International Journal of Molecular Sciences, 2025).
# Tested on: HIV-1 (subtype B) in MT-4 cells
# Test: Antigen p24 assay in HIV-infected MT-4 cells
# Format: cell-based
# Details: Human immunodeficiency virus 1, MT4; HIV-1 899A strain (subtype B), third day after infection
# Procedure: The human MT-4 lymphoblastoid cells were cultured in RPMI 1640 medium supplemented with 10% fetal bovine serum (FBS) (HyClone, Logan, UT, USA), 2 mM L-glutamine, 50 U/mL penicillin, and 50 μg/mL streptomycin in a humidified atmosphere of 5% CO2 at 37 °C. The cells were re-seeded at a density of 3.0 × 10^5 cells/mL every three days. The HIV-1_899A strain (subtype B) was used from the collection of human immunodeficiency virus strains of the D.I. Ivanovsky Institute of Virology, N. F. Gamaleya National Research Center of Epidemiology and Microbiology, Ministry of Health, Moscow, Russia. The commercial drug Efavirenz (EFV), a non-nucleoside inhibitor of HIV reverse transcriptase, was used as a positive control. HIV-1 was added to the cells at 0.1 CCID50 (50% cell culture infectious dose). The cells, both infected and non-infected, were then incubated at 37 °C in a humidified atmosphere containing 5% CO2 for a 40 min period, after which the cells were washed twice in serum-free RPMI 1640 and plated into the wells of a 96-well plate. The tested compounds were then added to the cells at concentrations from 0.5 μM to 100 μM. The final ethanol concentration was 1% v/v. On the third day after infection, the culture fluid was collected for determining the amount of p24 antigen by enzyme immunoassay analysis using a commercial test system kit (Genscreen ULTRA HIV Ag-Ab, Bio-Rad, Hercules, CA, USA). Cell viability was measured by MTT assay.
row,Compound,IC50 [µM]
1,"Oc1c(N/N=C/c2ccccc2)ccc2cccnc12 [Compound I, 7-(2-Benzylidenohydrazinyl)-8-hydroxyquinoline]",0.77 ± 0.03
2,"O=[N+]([O-])c1ccc(/C=N/Nc2ccc3cccnc3c2O)cc1 [II, 7-(4-Nitrobenzylidenohydrazinyl)-8-hydroxyquinoline]",1.2 ± 0.08
3,"O=[N+]([O-])c1cccc(/C=N/Nc2ccc3cccnc3c2O)c1 [III, 7-(3-Nitrobenzylidenohydrazinyl)-8-hydroxyquinoline]",1.4 ± 0.33
4,"COc1ccc(/C=N/Nc2ccc3cccnc3c2O)cc1 [IV, 7-(4-Methoxybenzylidenohydrazinyl)-8-hydroxyquinoline]",0.67 ± 0.05
5,"Oc1c(N/N=C/c2ccc(Br)c(Br)c2)ccc2cccnc12 [V, 7-(3,4-Dibromobenzylidenohydrazinyl)-8-hydroxyquinoline]",< 0.5
6,"Oc1c(N/N=C/c2ccc(F)cc2)ccc2cccnc12 [VI, 7-(4-Fluorobenzylidenohydrazinyl)-8-hydroxyquinoline]",< 0.5

# Tested on: not listed separately
# Test: Water solubility and stability of hydrazones and alginate microgels
# Format: physicochemical
# Details: preliminary studies
# Procedure: The expected mass loading of microgels was 33% (5.0 mg of alginate + 2.5 mg of a sample). A solution of sodium alginate was prepared at a concentration of 3.0 mg/mL. 1.700 mL of sodium alginate solution and 3.283 mL of distilled water were added to the beaker and an equimolar copper sulfate solution (17.0 μL) was added dropwise and stirred for 30 min. Then, concentrated hydrochloric acid was dissolved in 250 μL of the polymer solution for 20 min while heating to 50 °C until the solid residue was completely dissolved. The resulting solution of I was added dropwise to the Cu^2+–alginate microgel solution and stirred for 24 h; then, the acid was neutralized with a concentrated NaOH aq. solution. The resulting solutions were purified using flow dialysis. Microgels with substances were lyophilized until a fully dry pinkish powder was obtained.
row,Compound,solubility [µg/mL]
1,"Oc1c(N/N=C/c2ccccc2)ccc2cccnc12 [Compound I, 7-(2-Benzylidenohydrazinyl)-8-hydroxyquinoline]",~2300
